Measurements reported in patent publication US20120058133A1, “INHIBITION OF TRNA SYNTHETASES AND THERAPEUTIC APPLICATIONS THEREOF” (President and Fellows of Harvard College, priority 2009, published 2012).

Experiments:
[1] = system: STAT3 phosphorylation; experiment: STAT3 phosphorylation in developing Th17 cells; type: cell-based, mouse
Description: FIG. 3. […] FIG. 3A is a set of representative histograms displaying the kinetics of STAT3 phosphorylation in developing Th17 cells treated with or without HF. Resting naïve T cells (grey, shaded peak), T cells activated in the presence of TGFβ plus IL-6 (TGFβ/IL-6) treated with 10 nM MAZ1310 (light gray trace), 5 nM HF (medium gray trace), or 10 nM HF (dark gray trace). T cells were fixed at the indicated times and intracellular phospho-STAT3 staining was performed.
FIG. 3B depicts western blot analysis of CD4^+ CD25^− T cells treated with 10 nM HF or 10 nM MAZ1310 and activated in the presence or absence of TGFβ plus IL-6. Whole cell lysates were generated at the indicated times following activation.
All cell surface staining was performed in FACS buffer (PBS/2% FBS/0.1% NaN3) and antibodies were incubated with cells on ice for 20-30 minutes. Cells were washed with FACS buffer and fixed with FACS buffer plus 1% paraformaldehyde prior to data acquisition. For phospho-STAT3 intracellular staining, stimulated T cells cultured with or without TGFβ plus IL-6 for the indicated times were harvested on ice and fixed in PBS plus 2% paraformaldehyde for 10 minutes at 37° C. Fixed cells were washed twice with staining buffer (PBS/1% BSA/0.1% NaN3) and then permeabilized with perm buffer III (BD Pharmingen) on ice for 30 minutes. Cells were then washed twice with staining buffer and PE-conjugated anti-STAT3 (pY705) (BD Pharmingen) was added per the manufacturer's instructions and incubated with cells at room temperature for 45-60 minutes. Cells were then washed and stored in staining buffer prior to data acquisition. Foxp3 intracellular staining was performed using a Foxp3 intracellular staining kit (eBioscience—San Diego, Calif.) in accordance with the manufacturer's instructions. […] All FACS data was acquired on a FACSCalibur flow cytometer (BD Pharmingen) and analyzed using FlowJo software (Treestar, Inc.—Ashland, Oreg.). […]

[2] = system: MEFs; experiment: Total protein synthesis and metabolic activity (Alamar blue) of fibroblasts; type: cell-based, mouse
Description: (§1) FIG. 26D. HF-inhibition of collagen production is rescued by proline and doesn't affect overall protein synthesis. Cells were pre-incubated with HF with or without proline for 4 hours, and ^35S-methionine and HF with or without proline was added. 24 hours later, conditioned medium and total cell lysate was harvested. New production of Type I procollagen was measured in conditioned medium by Western blot, and bands quantitated using Image J quantitation software. The original blot is shown in FIG. 27; total protein synthesis was measured as TCA-precipitable ^35S in a scintillation counter. Error bars reflect standard deviation of triplicate determinations.
FIG. 29. HF effect on cellular metabolic activity. MEFs were incubated at indicated dose of HF with or without 2 mM proline for 24 hours and tested for metabolic activity using an Alamar blue assay (Invitrogen).

[3] = system: EAE and CIA; conditions: mouse, in vivo; cited from earlier work
[4] = system: mouse embryo fibroblasts (MEFs); experiment: ECM gene expression and protein production in MEFs; type: cell-based
Description: FIG. 26C. Proline rescues both HF stimulated and HF inhibited gene expression. MEFs were treated with or without HF (50 nM) and/or Proline (2 mM) for 4 hours (CHOP, S100A4) or 24 hours (CoLIA1, ColIA2). DMSO was used as vehicle control. Changes in mRNA levels are expressed as fold-change relative to control and normalized to expression of TBP. Error bars reflect standard deviation of determinations from plates of cells treated in triplicate, confidence interval (p-value) for the effect of HF alone versus HF+Pro was determined using a two-tailed Student's t test. Data are representative of two separate experiments.
as §1
FIG. 33. Proline rescues HF-suppression of ECM protein production. MEFs were incubated for 4 hours in HF with or without 2 mM Pro, to measure new collagen production in conditioned medium (cells were washed into fresh DMEM/0.2% FBS with fresh HF and proline re-added, and either conditioned medium (for Type I procollagen) or total cell lysate (for fibronectin, […]) harvested twenty four hours later. Protein levels were assayed by Western blot.
Q-PCR was performed using the Roche LightCycle UPR system, using the following primers and probes: […]

O=C(CC1NCCCC1O)Cn1cnc2cc(Br)c(Cl)cc2c1=O (racemic) [HF, halofuginone]
time post activation at which STAT3 phosphorylation begins to decrease [1]: around 12 hours | STAT3 activation during the first 6 hours of Th17 differentiation ([1]; 5-10 nM HF): did not interfere with STAT3 activation | maintenance of STAT3 phosphorylation ([1]; 5-10 nM HF): decreased the maintenance of STAT3 phosphorylation | total metabolic activity of fibroblasts [2]: unaffected | 35S-methionine incorporation into total protein ([2]; doses inhibiting ECM proteins, 24 hours): did not significantly change | activity in EAE and CIA models [3]: active in these models | mRNA levels of ColIA1, ColIA2, and S100A4 ([4]; 50 nM HF, 4 or 24 hours): inhibited mRNA levels | CHOP mRNA expression ([4]; 50 nM HF, 4 hours): stimulated | reversal of HF effects on ECM genes and proteins by proline ([4]; 2 mM proline): reversed by the addition of 2 mM proline | production of fibronectin ([4]; 24 hours): dramatically inhibited | production of secreted Type I procollagen protein ([4]; 24 hours): dramatically inhibited
